The test system of series [1] is papilloma. In kind it is in vivo, mice. Particulars: for papilloma size: larger 3-15 mm papilloma, 25 μg injected on d0, d1, d7 and d8. From the text: Pdx-Cre^+/− (Stock190 014647, Jackson Laboratories, Bar Harbor, Me.), Kras^(G12D)+/− (Stock#008179, Jackson Laboratories), and Trp53^(R172H)+/− (Stock#01XM2, NCI Fredrick Mouse Repository) mice were crossed to generate Pdx-Cre^+/− Kras ^(G12D)+/− Trp53^(R172H)+/− that generate pancreatic tumors (Hingorani et al., Cancer Cell 7:469-483, 2005). At variable penetrance, mice develop papilloma of the face and anogenital region (Hingorani et al., Cancer Cell 7:469-483, 2005; Gades et al., Comp. Med. 58:271-275, 2008). Mice bearing papilloma with no evidence of pancreatic tumors and less than 90 days of age were accrued to this study. Masses were treated by injection of 25 μg of c-di-CDG (Invivogen, San Diego, Calif., Catalog No. tlrl-naldg), Imiquimod (Invivogen) or PBS vehicle.
STING ligands were administered into the papilloma by direct injection with a total dose of 25 μg administered in a 25 μl injection volume. In the control case, 25 μg of Imiquimod was administered using the same technique. For larger papillomas, the injection was split between different sites within the same growth. The total dose to the growth remained 25 μg in each case. The animals were retreated on day 7 with a second cycle of injections.
Rapid alterations in small papilloma to resemble normal skin were observed within 18 hours of treatment (FIGS. 2A and B). In pilot studies, mice bearing papilloma were randomly assigned to treatment with the STING ligand c-di-GMP (CDG) or PBS vehicle control. In an example of a mouse with two small papilloma on the face, one was treated by direct injection of CDG, and the other given vehicle control (FIG. 2A, left). The CDG-injected papilloma rapidly reverted to normal skin within 18 hours (FIG. 2A, right). […] Injection of STING ligand into histologically normal skin at distant sites or in normal mice had no observable effect (not shown).
In addition, very large papilloma was treated with two cycles of treatment separated by 1 week, resulting in dramatic tumor regression (FIG. 3A). […] We tested treatment of larger, 3-15 mm papilloma with STING ligands. […] Therefore, we developed a treatment course consisting of injections on d0 and d1, and again on d7 and d8 as the papilloma decreased in size (FIG. 3B). Mice were randomized to receive CDG, to conventional treatment with the TLR7 ligand imiquimod, or PBS vehicle.

In series [2] the test system is papilloma. Kind of series: CD3+ T cell infiltration and histology of treated papilloma. In kind it is in vivo, mice. Particulars: for infiltrating CD3+ T cells in papilloma: 24 hours after injection of 25 μg. The procedure:
FIGS. 4A-C are a series of digital images showing infiltration of T cells following treatment with STING ligand. […] Sections were stained for CD3 and DAPI nuclear counterstain. […] Both papilloma sites were harvested 24 hours later and stained for CD3 and DAPI nuclear counterstain on the i) treated and ii) untreated opposite side papilloma.
To investigate the effect of treatment on T cell infiltration, which we and others have shown play a role in clearance of advanced cancers following administration of STING ligands (Baird et al., Cancer Res. 76:50-61, 2016; Corrales et al., Cell Rep. 11:1018-1030, 2015), papilloma were stained for infiltrating CD3^+ T cells.

The subject of series [3] is Murine bone marrow-derived macrophages. Nature of the series: M1/M2 differentiation of macrophages, Western blotting for iNOS and arginase I. The settings on record: 24 hours treatment, then IFNγ (20 ng/ml) or IL-4 (20 ng/ml). In kind it is cell-based. On the procedure:
FIG. 5 is a digital image of a Western blot for iNOS, Arginase I, and GAPDH in murine bone marrow-derived macrophages treated with compounds targeting TLR4 (LPS), STING (CDA), NOD2 (PGNECndss), TLR7 (Imiquimod), TLR9 (class A CpG), or RIGI (ppp5′dsRNA), then treated with IFNγ (20 ng/ml) or IL-4 (20 ng/ml).
Murine bone marrow-derived macrophages were treated for 24 hours with a range of immunological adjuvants targeting STING (CDA), NOD2 (PGNECndss), TLR7 (imiquimod), TLR9 (class A CpG), or RIGI (ppp5′dsRNA), then treated with IFNγ (20ng/ml) or IL-4 (20ng/ml) to direct M1 or M2 differentiation, respectively. Ligation of TLR4 (LPS) was a positive control. M1 differentiation was distinguished by expression of iNOS, and M2 differentiation by expression of arginase I as measured by Western blotting.
In general terms: In western blotting, separated proteins are transferred to a membrane and probed.

In series [4] the test system is cervical dysplasia. The settings on record: added to excisional therapies, randomized clinical trials; cited from earlier work.

With `CC(C)Cn1cnc2c(N)nc3ccccc3c21` [imiquimod], in series [1], the papilloma size entry was “did not significantly affect the size of the papilloma”. Also, the “infiltrating CD3+ T cells in papilloma” value in series [2] is “Few to no T cells were detected”. In addition, the “M1 (iNOS) / M2 (arginase I) differentiation of macrophages” value in series [3] was “can drive macrophages into either M1 or M2 differentiation”. In series [4], the “rate of recurrence of cervical dysplasia” value is listed as “neither approach impacts the rate of recurrence”.

Take `Nc1nc2c(ncn2[C@@H]2O[C@@H]3COP(=O)(O)O[C@H]4[C@@H](O)[C@H](n5cnc6c(=O)[nH]c(N)nc65)O[C@@H]4COP(=O)(O)O[C@H]3[C@H]2O)c(=O)[nH]1` [CDG, cyclic diguanylate monophosphate]: the toxicity entry in series [1] (25 μg direct injection) is “non-toxic at these doses”. The “effect of a single injection on larger papilloma” value in series [1] (3-15 mm papilloma, single injection) is recorded as “rapid loss of papilloma around the injection site, but these did not fully regress”. In addition, in series [1] (18 hours after injection into small papilloma), the “appearance of injection site” value is “slight reddening”. In series [1], the papilloma size entry is recorded as “significantly decreased papilloma size”. For the same compound, the “complete regression of papilloma” value in series [1] (larger papilloma, injections on d0, d1, d7 and d8) is listed as “complete regression of some papilloma”. Further, the “time for injected small papilloma to revert to normal skin” value in series [1] (mouse with two small papilloma on the face, direct injection of 25 μg) is ≤ 18 h. Moreover, the “regression of experimental papilloma” value in series [1] (small papilloma, direct injection of 25 μg) is reported as “rapid, site-specific regression of experimental papilloma”. Also, the “infiltrating CD3+ T cells in papilloma” value in series [2] is on record as “CD3^+ T cells were found associated with the normalized skin epithelium”. In series [2] (14 days following treatment), the “T cells in normalized skin” value is listed as “enriched in the normalized skin”. The “T cell infiltration in treated versus untreated papilloma of the same mouse” value in series [2] (mice with more than one papilloma, one treated, 24 hours) was “T cell infiltration and control only in the treated papilloma”.

With interferon alpha, in series [4], the “rate of recurrence of cervical dysplasia” value is given as “neither approach impacts the rate of recurrence”.

`Nc1ncnc2c1ncn2[C@@H]1O[C@@H]2COP(=O)(O)O[C@H]3[C@@H](O)[C@H](n4cnc5c(N)ncnc54)O[C@@H]3COP(=O)(O)O[C@H]2[C@H]1O` [CDA, cyclic diadenylate monophosphate]: the “M1 (iNOS) / M2 (arginase I) differentiation of macrophages” value in series [3] is “prevented M2 differentiation by IL-4 without driving M1 differentiation”.

Source of the values: patent US20170239283A1, “USE OF STING AGONISTS TO TREAT VIRALLY-INDUCED AND PRE-MALIGNANT GROWTHS” (Providence Health & Services - Oregon, priority 2016, published 2017).
